In US4138554A, “7-[D-α-(4-Hydroxy-1,5-naphthyridine-3-carboxamido)-α-phenyl (and p-hydroxyphenyl)acetamido]-3-carbamoyloxymethyl-3-cephem-4-carboxylic acids” (priority 1977, dated 1979):
Converted amounts (≈) assume the structure as drawn. Like-named read-outs stand apart in the source and are kept apart here.

How the values were obtained:
Format in all cases: cell-based
Pseudomonas aeruginosa = assay: MIC by agar dilution against 61 strains of Pseudomonas aeruginosa, secondary evaluation; conditions: Pseudomonas aeruginosa
Experimental: (§1) Minimum inhibitory concentrations (MIC) of BB-S520 were determined by serial two-fold agar dilution method using Steers' apparatus on Meuller-Hinton agar plate against 31 test organisms for the primary screening and also against 61 strains of Pseudomonas aeruginosa for the secondary evaluation. The results are shown in Table 1 and Table 2 along with those of BB-S514 and sulbenicillin.
(§2) Minimum inhibitory concentrations (MIC) of cephalosporins in the present study were determined by serial two-fold agar dilution method using Steers' apparatus on Mueller-Hinton agar plate against 31 test organisms for the primary screening and also against 61 strains of Pseudomonas aeruginosa for the secondary evaluation.

P. vulgaris = assay: MIC by serial two-fold agar dilution (Mueller-Hinton agar), P. vulgaris
Experimental: as §1, §2

Klebsiella sp. = assay: MIC by serial two-fold agar dilution (Mueller-Hinton agar), Klebsiella sp.
Experimental: as §1, §2

CC1(C)S[C@@H]2[C@H](NC(=O)C(c3ccccc3)S(=O)(=O)O)C(=O)N2[C@H]1C(=O)O (stereo partly drawn) [Sulbenicillin, sulbenicillin]
MIC (Pseudomonas aeruginosa; BBRI Pa-No. 19, Table 7, read-out: MIC): 6.3 µg/mL (≈ 15.2 µM) | MIC (Pseudomonas aeruginosa; BBRI Pa-No. 20, Table 2, read-out: MIC): 25 µg/mL (≈ 60.3 µM) | MIC (Pseudomonas aeruginosa; BBRI Pa-No. 20, Table 7, read-out: MIC): 25 µg/mL (≈ 60.3 µM) | MIC (Pseudomonas aeruginosa; BBRI Pa-No. 21, Table 2, read-out: MIC): 25 µg/mL (≈ 60.3 µM) | MIC (Pseudomonas aeruginosa; BBRI Pa-No. 21, Table 7, read-out: MIC): 25 µg/mL (≈ 60.3 µM) | MIC (Pseudomonas aeruginosa; BBRI Pa-No. 23, Table 2, read-out: MIC): 50 µg/mL (≈ 121 µM) | MIC (Pseudomonas aeruginosa; BBRI Pa-No. 23, Table 7, read-out: MIC): 25 µg/mL (≈ 60.3 µM) | MIC (Pseudomonas aeruginosa; BBRI Pa-No. 24, Table 2, read-out: MIC): 100 µg/mL (≈ 241 µM) | MIC (Pseudomonas aeruginosa; BBRI Pa-No. 24, Table 7, read-out: MIC): > 100 µg/mL | MIC (Pseudomonas aeruginosa; BBRI Pa-No. 25, Table 7, read-out: MIC): 6.3 µg/mL (≈ 15.2 µM) | MIC (Pseudomonas aeruginosa; BBRI Pa-No. 28, CPH1C527/72, Table 7, read-out: MIC): 50 µg/mL (≈ 121 µM) | MIC (Pseudomonas aeruginosa; BBRI Pa-No. 28, CPH10527/72, Table 2, read-out: MIC): 50 µg/mL (≈ 121 µM) | MIC (Pseudomonas aeruginosa; BBRI Pa-No. 29, D122, Table 2, read-out: MIC): 25 µg/mL (≈ 60.3 µM) | MIC (Pseudomonas aeruginosa; BBRI Pa-No. 29, D122, Table 7, read-out: MIC): 25 µg/mL (≈ 60.3 µM) | MIC (Pseudomonas aeruginosa; BBRI Pa-No. 30, Table 2, read-out: MIC): 25 µg/mL (≈ 60.3 µM) | MIC (Pseudomonas aeruginosa; BBRI Pa-No. 30, Table 7, read-out: MIC): 25 µg/mL (≈ 60.3 µM) | MIC (Pseudomonas aeruginosa; BBRI Pa-No. 31, Table 7, read-out: MIC): 3.1 µg/mL (≈ 7.48 µM) | MIC (Pseudomonas aeruginosa; BBRI Pa-No. 32, Table 2, read-out: MIC): 25 µg/mL (≈ 60.3 µM) | MIC (Pseudomonas aeruginosa; BBRI Pa-No. 32, Table 7, read-out: MIC): 25 µg/mL (≈ 60.3 µM) | MIC (Pseudomonas aeruginosa; BBRI Pa-No. 33, Table 2, read-out: MIC): 100 µg/mL (≈ 241 µM) | MIC (Pseudomonas aeruginosa; BBRI Pa-No. 33, Table 7, read-out: MIC): 25 µg/mL (≈ 60.3 µM) | MIC (Pseudomonas aeruginosa; BBRI Pa-No. 34, Table 2, read-out: MIC): 25 µg/mL (≈ 60.3 µM) | MIC (Pseudomonas aeruginosa; BBRI Pa-No. 35, Table 2, read-out: MIC): 100 µg/mL (≈ 241 µM) | MIC (Pseudomonas aeruginosa; BBRI Pa-No. 35, Table 7, read-out: MIC): 50 µg/mL (≈ 121 µM) | MIC (Pseudomonas aeruginosa; BBRI Pa-No. 36, Table 2, read-out: MIC): 1.6 µg/mL (≈ 3.86 µM) | MIC (Pseudomonas aeruginosa; BBRI Pa-No. 36, Table 7, read-out: MIC): 0.8 µg/mL (≈ 1.93 µM) | MIC (Pseudomonas aeruginosa; BBRI Pa-No. 37, Table 2, read-out: MIC): 50 µg/mL (≈ 121 µM) | MIC (Pseudomonas aeruginosa; BBRI Pa-No. 37, Table 7, read-out: MIC): 25 µg/mL (≈ 60.3 µM) | MIC (Pseudomonas aeruginosa; BBRI Pa-No. 38, Table 2, read-out: MIC): 50 µg/mL (≈ 121 µM) | MIC (Pseudomonas aeruginosa; BBRI Pa-No. 38, Table 7, read-out: MIC): 100 µg/mL (≈ 241 µM) | MIC (Pseudomonas aeruginosa; BBRI Pa-No. 39, Table 2, read-out: MIC): 25 µg/mL (≈ 60.3 µM) | MIC (Pseudomonas aeruginosa; BBRI Pa-No. 39, Table 7, read-out: MIC): 25 µg/mL (≈ 60.3 µM) | MIC (Pseudomonas aeruginosa; BBRI Pa-No. 41, Table 2, read-out: MIC): 25 µg/mL (≈ 60.3 µM) | MIC (Pseudomonas aeruginosa; BBRI Pa-No. 41, Table 7, read-out: MIC): 25 µg/mL (≈ 60.3 µM) | MIC (Pseudomonas aeruginosa; BBRI Pa-No. 42, Table 2, read-out: MIC): > 100 µg/mL | MIC (Pseudomonas aeruginosa; BBRI Pa-No. 42, Table 7, read-out: MIC): > 100 µg/mL | MIC (Pseudomonas aeruginosa; BBRI Pa-No. 43, Table 2, read-out: MIC): 50 µg/mL (≈ 121 µM) | MIC (Pseudomonas aeruginosa; BBRI Pa-No. 43, Table 7, read-out: MIC): 25 µg/mL (≈ 60.3 µM) | MIC (Pseudomonas aeruginosa; BBRI Pa-No. 44 (unnamed strain), Table 7, read-out: MIC): 50 µg/mL (≈ 121 µM) | MIC (Pseudomonas aeruginosa; BBRI Pa-No. 44, Table 2, read-out: MIC): 50 µg/mL (≈ 121 µM) | MIC (Pseudomonas aeruginosa; BBRI Pa-No. 51, Table 2, read-out: MIC): 25 µg/mL (≈ 60.3 µM) | MIC (Pseudomonas aeruginosa; BBRI Pa-No. 51, Table 7, read-out: MIC): 25 µg/mL (≈ 60.3 µM) | MIC (Pseudomonas aeruginosa; BBRI Pa-No. 52, Table 2, read-out: MIC): 25 µg/mL (≈ 60.3 µM) | MIC (Pseudomonas aeruginosa; BBRI Pa-No. 52, Table 7, read-out: MIC): 50 µg/mL (≈ 121 µM) | MIC (Pseudomonas aeruginosa; BBRI Pa-No. 53, Table 2, read-out: MIC): 25 µg/mL (≈ 60.3 µM) | MIC (Pseudomonas aeruginosa; BBRI Pa-No. 53, Table 7, read-out: MIC): 25 µg/mL (≈ 60.3 µM) | MIC (Pseudomonas aeruginosa; BBRI Pa-No. 54, Table 2, read-out: MIC): 50 µg/mL (≈ 121 µM) | MIC (Pseudomonas aeruginosa; BBRI Pa-No. 54, Table 7, read-out: MIC): 25 µg/mL (≈ 60.3 µM) | MIC (Pseudomonas aeruginosa; BBRI Pa-No. 55, Table 2, read-out: MIC): 25 µg/mL (≈ 60.3 µM) | MIC (Pseudomonas aeruginosa; BBRI Pa-No. 55, Table 7, read-out: MIC): 25 µg/mL (≈ 60.3 µM) | MIC (Pseudomonas aeruginosa; BBRI Pa-No. 56, Table 2, read-out: MIC): 25 µg/mL (≈ 60.3 µM) | MIC (Pseudomonas aeruginosa; BBRI Pa-No. 56, Table 7, read-out: MIC): 25 µg/mL (≈ 60.3 µM) | MIC (Pseudomonas aeruginosa; BBRI Pa-No. 57, Table 2, read-out: MIC): 25 µg/mL (≈ 60.3 µM) | MIC (Pseudomonas aeruginosa; BBRI Pa-No. 57, Table 7, read-out: MIC): 25 µg/mL (≈ 60.3 µM) | MIC (Pseudomonas aeruginosa; BBRI Pa-No. 58, Table 2, read-out: MIC): 50 µg/mL (≈ 121 µM) | MIC (Pseudomonas aeruginosa; BBRI Pa-No. 58, Table 7, read-out: MIC): 50 µg/mL (≈ 121 µM) | MIC (Pseudomonas aeruginosa; BBRI Pa-No. 59, Table 2, read-out: MIC): 50 µg/mL (≈ 121 µM) | MIC (Pseudomonas aeruginosa; BBRI Pa-No. 59, Table 7, read-out: MIC): 25 µg/mL (≈ 60.3 µM) | MIC (Pseudomonas aeruginosa; BBRI Pa-No. 61, Table 2, read-out: MIC): 50 µg/mL (≈ 121 µM) | MIC (Pseudomonas aeruginosa; BBRI Pa-No. 61, Table 7, read-out: MIC): 25 µg/mL (≈ 60.3 µM) | MIC (Pseudomonas aeruginosa; BBRI Pa-No. 62, Table 2, read-out: MIC): > 100 µg/mL | MIC (Pseudomonas aeruginosa; BBRI Pa-No. 62, Table 7, read-out: MIC): > 100 µg/mL | MIC (Pseudomonas aeruginosa; BBRI Pa-No. 64, Table 2, read-out: MIC): 25 µg/mL (≈ 60.3 µM) | MIC (Pseudomonas aeruginosa; BBRI Pa-No. 64, Table 7, read-out: MIC): 25 µg/mL (≈ 60.3 µM) | MIC (Pseudomonas aeruginosa; BBRI Pa-No. 65, Table 2, read-out: MIC): 25 µg/mL (≈ 60.3 µM) | MIC (Pseudomonas aeruginosa; BBRI Pa-No. 65, Table 7, read-out: MIC): 25 µg/mL (≈ 60.3 µM) | MIC (Pseudomonas aeruginosa; BBRI Pa-No. 66, Table 2, read-out: MIC): 25 µg/mL (≈ 60.3 µM) | MIC (Pseudomonas aeruginosa; BBRI Pa-No. 66, Table 7, read-out: MIC): 25 µg/mL (≈ 60.3 µM) | MIC (Pseudomonas aeruginosa; BBRI Pa-No. 67, Table 2, read-out: MIC): 50 µg/mL (≈ 121 µM) | MIC (Pseudomonas aeruginosa; BBRI Pa-No. 67, Table 7, read-out: MIC): 25 µg/mL (≈ 60.3 µM) | MIC (Pseudomonas aeruginosa; BBRI Pa-No. 68, Table 2, read-out: MIC): 50 µg/mL (≈ 121 µM) | MIC (Pseudomonas aeruginosa; BBRI Pa-No. 68, Table 7, read-out: MIC): 50 µg/mL (≈ 121 µM) | MIC (Pseudomonas aeruginosa; BBRI Pa-No. 69, Table 2, read-out: MIC): 50 µg/mL (≈ 121 µM) | MIC (Pseudomonas aeruginosa; BBRI Pa-No. 69, Table 7, read-out: MIC): 100 µg/mL (≈ 241 µM) | MIC (Pseudomonas aeruginosa; BBRI Pa-No. 70, K-Ps102 (CR-102), Table 2, read-out: MIC): 25 µg/mL (≈ 60.3 µM) | MIC (Pseudomonas aeruginosa; BBRI Pa-No. 70, K-Ps102(CR-102), Table 7, read-out: MIC): 50 µg/mL (≈ 121 µM) | MIC (Pseudomonas aeruginosa; GN315): 12.5 µg/mL (≈ 30.2 µM) | MIC (Pseudomonas aeruginosa; GN315, BBRI Pa-No. 27, GN315, Table 2, read-out: MIC): 50 µg/mL (≈ 121 µM) | MIC (Pseudomonas aeruginosa; GN4925, BBRI Pa-No. 44, GN4925, Table 7, read-out: MIC): 50 µg/mL (≈ 121 µM) | MIC (Pseudomonas aeruginosa; GN4925, BBRI Pa-No. 45, GN4925, Table 2, read-out: MIC): 50 µg/mL (≈ 121 µM) | MIC (P. vulgaris; P. vulgaris A9539, Table 6): 3.1 µg/mL (≈ 7.48 µM) | MIC (P. vulgaris; Proteus vulgaris, P. vulgaris, Table 1, read-out: MIC): 3.1 µg/mL (≈ 7.48 µM) | MIC (Klebsiella sp.; Klebsiella): 12.5 µg/mL (≈ 30.2 µM) | MIC (Klebsiella sp.; Klebsiella sp. A20452, Table 6): 12.5 µg/mL (≈ 30.2 µM)
